Key:
SMARCA2 = SMARCA2 (Homo sapiens, UniProt P51531); assay: SMARCA2 Western blot degradation in MV4-11 cells; format: cell-based; set-up: SMARCA2/SMARCA4 protein degradation selectivity in MV4-11 cells; endogenous in cells; host or cells: MV4-11; details: for Dmax: MV4-11, MV4-11 cells, read-out: SMARCA2 MSD MV411 degradation 24 h: average Dmax %; for Dmax / DC50 / SMARCA2 MSD MV411 degradation 24 h: average Dmax %: 24 h; for DC50 / Selectivity in MV411 / SMARCA2 MSD MV411 degradation 24 h: average Dmax %: MV4-11 cells; for DC50: read-out: SMARCA2 MSD MV411 degradation 24 h: Mean external-Abs DC50; for Selectivity in MV411: SMARCA2/4 selectivity
SMARCA4 = target: T1, SMARCA4 (Homo sapiens, UniProt P51532); assay: SMARCA4 Western blot degradation in MV4-11 cells; format: cell-based; details: for Dmax: MV4-11, MV4-11 cells, read-out: SMARCA4 MSD MV411 degradation 24 h: average Dmax %; for Dmax / DC50: 24 h; for DC50 / SMARCA4 MSD MV411 degradation 24 h: average Dmax %: MV4-11 cells; for DC50: read-out: SMARCA4 MSD MV411 degradation 24 h: Mean external-Abs DC50
T1 construct: SMARCA2/SMARCA4 protein degradation selectivity in MV4-11 cells; endogenous in cells; host or cells: MV4-11
Procedure: Example 11. SMARCA2 and SMARCA4 Western Blot MV4-11 Degradation
Cells were seeded into 6-well plates (MV4-11:4×10^6 cells/well/1 ml) and 1 ml of 2× compound solution was added into the well to make the final concentration and the plates were mixed well and incubated for 24 hours (No cytotoxicity was observed). The cell were collected with media and spun at 3000 rpm for 5 minutes. The supernatant was aspirated and the well and the cells were washed with cold PBS once and combined for centrifugation again; the supernatant aspirated again. 200 uL pre-chilled RIPA lysis buffer (Boston BioProducts BP-115D) with protease/phosphatase inhibitor (Roche 05892791001/Roche 04906837001) was directly added into the tube to lyze the cells for 20 minutes on ice. The cell lysate were collected into EP tubes and spun at 13000 rpm for 20 minutes and 72 uL supernatant was transferred to a fresh EP tube containing 18 μL of 5× loading buffer (Beyotime Bio P0015) to make the loading samples. The samples were heated to 100° C. for 10 minutes and cooled to RT and microcentrifuged. 20 μL of samples were loaded onto SDS-PAGE gel (Novex, WG1402BOX) and the gel was run at 80 V for 20 minutes and 120 V for 1.5 hours. The samples were electrotransfer to a NC membrane using wet-transfer method with 250 mA for 2.5 hours. The membrane was blocked with LICOR blocking buffer (LI COR,927-50000) for 1 hour. The membrane was washed three times with TBST(CST #9997S), 5 minutes each. Incubation was performed with primary antibody prepared in blocking buffer with 0.1% Tween-20 (Solarbio, P8220) at 4° C. overnight (Anti-SMARCA2/BRM antibody (ab15597) 1:500; Anti-BRG1 antibody [EPR3912](ab108318) 1:1000; Rabbit anti-Bafl80 antibody [EPR15860](Abcam,ab196022) 1:1000; mouse anti-beta-Actin (8H10D10) (CST #3700) 1:10000). The membrane was washed three times with TBST, 5 minutes each. Incubation with secondary antibody was performed for 1 hour at RT (anti-rabbit IgG (Licor,926-32211) 1:5000; anti-mouse IgG (LI-COR, 926-68070) 1:5000). The membrane was washed three times with 5 minutes each and lastly the LiCOR was read.
The letter codes for SMARCA2/4 degradation potency (DC50) include: A (<1 nM), B (1-10 nM), C (>10-100 nM), and D (>100 nM). The letter codes for the percentage of SMARCA2/4 degradation after 24 hours (Dmax %) include: A (>90% degradation), B (>70-90% degradation), C (50-70% degradation), and D (<50% degradation). The letter codes of SMARCA2/4 selectivity include: A (>500 fold), B (>100-500 fold), C (10-100 fold), and D (<10 fold). Table 8. SMARCA2/4 Selectivity Results

T1 sequence (P51532 whole entry): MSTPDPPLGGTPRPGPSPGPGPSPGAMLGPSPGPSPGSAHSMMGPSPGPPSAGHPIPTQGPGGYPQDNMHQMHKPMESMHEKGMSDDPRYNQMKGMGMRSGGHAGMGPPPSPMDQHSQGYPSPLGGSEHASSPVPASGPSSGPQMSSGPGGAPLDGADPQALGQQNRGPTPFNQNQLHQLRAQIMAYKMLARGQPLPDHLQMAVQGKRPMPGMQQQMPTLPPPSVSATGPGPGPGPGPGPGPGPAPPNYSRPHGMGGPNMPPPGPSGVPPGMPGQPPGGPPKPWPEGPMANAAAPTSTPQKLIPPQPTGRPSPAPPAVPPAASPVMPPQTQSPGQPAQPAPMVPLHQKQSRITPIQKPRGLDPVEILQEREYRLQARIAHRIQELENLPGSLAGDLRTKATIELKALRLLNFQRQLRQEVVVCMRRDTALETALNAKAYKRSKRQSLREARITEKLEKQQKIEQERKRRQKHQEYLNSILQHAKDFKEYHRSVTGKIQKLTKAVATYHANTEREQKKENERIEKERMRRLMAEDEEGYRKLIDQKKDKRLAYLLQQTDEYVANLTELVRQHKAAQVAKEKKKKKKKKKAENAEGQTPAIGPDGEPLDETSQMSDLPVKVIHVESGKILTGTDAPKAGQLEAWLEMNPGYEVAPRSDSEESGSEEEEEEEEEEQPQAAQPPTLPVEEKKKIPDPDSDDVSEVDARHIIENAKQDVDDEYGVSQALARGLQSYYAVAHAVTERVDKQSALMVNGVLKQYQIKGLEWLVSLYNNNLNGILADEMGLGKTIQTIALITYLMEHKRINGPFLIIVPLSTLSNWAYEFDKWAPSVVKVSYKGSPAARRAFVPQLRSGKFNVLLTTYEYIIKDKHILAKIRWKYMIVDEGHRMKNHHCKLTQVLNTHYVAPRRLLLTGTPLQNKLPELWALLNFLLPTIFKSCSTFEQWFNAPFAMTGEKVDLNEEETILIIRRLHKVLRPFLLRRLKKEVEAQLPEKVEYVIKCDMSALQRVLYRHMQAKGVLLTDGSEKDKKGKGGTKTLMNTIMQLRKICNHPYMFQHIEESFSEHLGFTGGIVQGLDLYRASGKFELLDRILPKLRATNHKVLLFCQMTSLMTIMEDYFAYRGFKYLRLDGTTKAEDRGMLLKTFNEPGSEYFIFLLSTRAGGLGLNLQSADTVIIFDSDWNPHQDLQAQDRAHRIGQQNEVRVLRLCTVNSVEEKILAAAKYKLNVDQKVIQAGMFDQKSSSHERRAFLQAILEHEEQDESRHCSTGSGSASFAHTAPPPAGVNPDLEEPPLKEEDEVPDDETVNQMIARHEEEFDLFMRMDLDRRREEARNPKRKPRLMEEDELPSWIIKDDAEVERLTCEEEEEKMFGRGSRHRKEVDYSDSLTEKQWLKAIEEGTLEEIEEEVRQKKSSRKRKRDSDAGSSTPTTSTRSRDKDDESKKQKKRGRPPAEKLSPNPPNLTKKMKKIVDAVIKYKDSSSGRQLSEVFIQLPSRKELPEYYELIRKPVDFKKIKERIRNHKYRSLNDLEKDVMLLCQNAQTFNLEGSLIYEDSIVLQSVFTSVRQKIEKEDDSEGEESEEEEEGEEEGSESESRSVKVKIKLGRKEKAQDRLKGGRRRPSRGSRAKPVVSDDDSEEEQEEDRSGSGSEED
Sequence of SMARCA2 (P51531 whole entry): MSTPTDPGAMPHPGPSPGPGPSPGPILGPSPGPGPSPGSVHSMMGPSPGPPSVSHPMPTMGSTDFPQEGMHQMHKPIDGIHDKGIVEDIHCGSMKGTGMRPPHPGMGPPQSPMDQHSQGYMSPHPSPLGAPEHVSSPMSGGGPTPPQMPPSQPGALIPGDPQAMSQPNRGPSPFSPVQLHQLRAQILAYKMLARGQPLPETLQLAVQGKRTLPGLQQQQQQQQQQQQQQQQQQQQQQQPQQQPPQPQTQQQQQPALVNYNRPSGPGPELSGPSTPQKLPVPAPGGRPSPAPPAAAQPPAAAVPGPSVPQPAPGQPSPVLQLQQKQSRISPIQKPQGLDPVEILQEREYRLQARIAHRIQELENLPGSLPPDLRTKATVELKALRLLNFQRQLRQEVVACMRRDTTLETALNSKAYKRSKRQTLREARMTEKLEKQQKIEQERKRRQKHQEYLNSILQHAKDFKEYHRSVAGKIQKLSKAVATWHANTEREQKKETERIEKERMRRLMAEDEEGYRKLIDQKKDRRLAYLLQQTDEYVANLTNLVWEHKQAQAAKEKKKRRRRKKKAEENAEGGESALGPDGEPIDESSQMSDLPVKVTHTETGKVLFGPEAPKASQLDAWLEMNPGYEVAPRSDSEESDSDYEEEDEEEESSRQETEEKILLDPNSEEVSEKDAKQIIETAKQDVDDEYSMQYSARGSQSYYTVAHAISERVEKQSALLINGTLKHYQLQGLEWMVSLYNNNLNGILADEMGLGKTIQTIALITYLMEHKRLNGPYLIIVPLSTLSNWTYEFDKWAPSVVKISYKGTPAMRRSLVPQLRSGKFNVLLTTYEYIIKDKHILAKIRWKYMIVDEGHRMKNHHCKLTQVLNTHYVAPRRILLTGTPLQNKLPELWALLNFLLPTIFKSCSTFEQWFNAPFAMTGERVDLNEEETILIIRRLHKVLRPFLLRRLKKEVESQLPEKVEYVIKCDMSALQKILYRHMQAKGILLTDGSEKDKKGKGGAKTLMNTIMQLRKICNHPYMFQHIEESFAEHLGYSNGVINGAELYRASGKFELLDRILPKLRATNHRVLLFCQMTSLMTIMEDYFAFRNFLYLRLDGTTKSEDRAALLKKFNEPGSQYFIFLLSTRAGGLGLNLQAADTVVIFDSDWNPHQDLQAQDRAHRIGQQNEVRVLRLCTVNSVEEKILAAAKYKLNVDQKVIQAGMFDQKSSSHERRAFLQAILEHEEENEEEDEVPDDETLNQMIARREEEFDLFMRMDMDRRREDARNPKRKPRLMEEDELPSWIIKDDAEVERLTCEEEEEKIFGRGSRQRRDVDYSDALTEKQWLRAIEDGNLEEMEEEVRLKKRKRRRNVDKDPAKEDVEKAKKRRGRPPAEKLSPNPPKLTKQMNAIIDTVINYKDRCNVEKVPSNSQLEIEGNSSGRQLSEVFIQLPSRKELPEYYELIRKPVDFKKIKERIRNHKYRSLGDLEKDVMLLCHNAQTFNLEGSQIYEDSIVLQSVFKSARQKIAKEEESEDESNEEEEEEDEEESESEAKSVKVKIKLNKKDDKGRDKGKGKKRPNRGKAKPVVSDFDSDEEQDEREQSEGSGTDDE

Row | Dmax (SMARCA2) [%] | DC50 (SMARCA2) [nM] | Selectivity in MV411 (SMARCA2) | Dmax (SMARCA4) [%] | DC50 (SMARCA4) [nM] | SMARCA2 MSD MV411 degradation 24 h: average Dmax % (SMARCA2) | SMARCA4 MSD MV411 degradation 24 h: average Dmax % (SMARCA4) | Structure (SMILES)
1 | > 90 | 1 to 10 | C (C (10-100 fold)) | 70 to 90 | 10 to 100 | – | – | Cc1ncsc1-c1ccc(CNC(=O)[C@@H]2C[C@@H](O)CN2C(=O)[C@H](c2cc(N3CC4(CC(N5CCC(c6cnc(N7CCN8c9cc(-c%10ccccc%10O)nnc9NC[C@H]8C7)nc6)CC5)C4)C3)no2)C(C)C)cc1 (single isomer, unassigned) [I-54]
2 | 70 to 90 | 1 to 10 | A (A (>500 fold)) | < 50 | > 100 | – | – | Cc1ncsc1-c1ccc(CNC(=O)[C@@H]2C[C@@H](O)CN2C(=O)[C@@H](NC(=O)[C@H]2CCC3(CC2)C[C@H](N2CCC(c4cnc(N5CCN6c7cc(-c8ccccc8O)nnc7NC[C@H]6C5)nc4)CC2)C3)C(C)(C)C)cc1 (single isomer, unassigned) [I-70]
3 | < 50 | > 100 | C (C (10-100 fold)) | < 50 | > 100 | – | – | Cc1ncsc1-c1ccc(CNC(=O)[C@@H]2C[C@@H](O)CN2C(=O)[C@@H](NC(=O)C2(F)CC2)C(C)(C)C)c(OC2CCN(Cc3cnc(N4CCc5[nH]c6nnc(-c7ccccc7O)cc6c5[C@@H]4C)nc3)CC2)c1 (single isomer, unassigned) [I-43]
4 | – | 1 to 10 | B (B (>100-500 fold)) | – | > 100 | B (B (>70-90% degradation)) | C (C (50-70% degradation)) | C#Cc1ccc(CNC(=O)[C@@H]2C[C@@H](O)CN2C(=O)[C@@H](NC(=O)[C@H]2CCC3(CC2)C[C@H](N2CCC(c4cnc(N5CCN6c7cc(-c8ccccc8O)nnc7NC[C@H]6C5)nc4)CC2)C3)C(C)(C)C)cc1 (single isomer, unassigned) [I-26]
5 | 70 to 90 | < 1 | C (C (10-100 fold)) | 70 to 90 | 10 to 100 | – | – | C#Cc1ccc(CNC(=O)[C@@H]2C[C@@H](O)CN2C(=O)[C@@H](NC(=O)[C@H]2CCC3(CC2)C[C@H](N2CCC(c4cnc(N5CCN6c7cc(-c8ccccc8O)nnc7NC[C@H]6C5)nc4)CC2)C3)C(C)(C)C)cc1 (single isomer, unassigned) [I-25]
6 | > 90 | < 1 | D (D (<10 fold)) | > 90 | 1 to 10 | – | – | C#Cc1ccc(CNC(=O)[C@@H]2C[C@@H](O)CN2C(=O)[C@@H](NC(=O)[C@H]2CC[C@@H](c3ccc(-c4cnc(N5CCN6c7cc(-c8ccccc8O)nnc7NC[C@H]6C5)nc4)cc3)CC2)C(C)(C)C)cc1 [I-24]
7 | 70 to 90 | 10 to 100 | D (D (<10 fold)) | 70 to 90 | > 100 | – | – | Cc1ncsc1-c1ccc(CNC(=O)[C@@H]2C[C@@H](O)CN2C(=O)[C@@H](NC(=O)C2(F)CC2)C(C)(C)C)c(OC2CN(CCN3CCC(c4cnc(N5CCc6[nH]c7nnc(-c8ccccc8O)cc7c6C5C)nc4)CC3)C2)c1 (stereo partly shown) [I-44]
8 | 70 to 90 | 1 to 10 | A (A (>500 fold)) | 50 to 70 | > 100 | – | – | C#Cc1ccc([C@H](C)NC(=O)[C@@H]2C[C@@H](O)CN2C(=O)[C@@H](NC(=O)[C@H]2CCC3(CC2)C[C@H](N2CCC(c4cnc(N5CCN6c7cc(-c8ccccc8O)nnc7NC[C@H]6C5)nc4)CC2)C3)C(C)(C)C)cc1 (single isomer, unassigned) [I-56]
9 | > 90 | 1 to 10 | C (C (10-100 fold)) | 70 to 90 | 10 to 100 | – | – | Cc1ncsc1-c1ccc(CNC(=O)[C@@H]2C[C@@H](O)CN2C(=O)[C@@H](NC(=O)[C@H]2CC3(CC[C@H](N4CCC(c5cnc(N6CCN7c8cc(-c9ccccc9O)nnc8NC[C@H]7C6)nc5)CC4)CC3)C2)C(C)(C)C)cc1 (single isomer, unassigned) [I-65]
10 | < 50 | > 100 | C (C (10-100 fold)) | < 50 | > 100 | – | – | Cc1ncsc1-c1ccc(CNC(=O)[C@@H]2C[C@@H](O)CN2C(=O)[C@@H](NC(=O)N2CCC3(CC2)CC(N2CCC(c4cnc(N5CCN6c7cc(-c8ccccc8O)nnc7NC[C@H]6C5)nc4)CC2)C3)C(C)(C)C)cc1 [I-67]
11 | 50 to 70 | 10 to 100 | C (C (10-100 fold)) | < 50 | > 100 | – | – | Cc1ncsc1-c1ccc(CNC(=O)[C@@H]2C[C@@H](O)CN2C(=O)[C@@H](NC(=O)N2CCC3(CCC(N4CCC(c5cnc(N6CCN7c8cc(-c9ccccc9O)nnc8NC[C@H]7C6)nc5)CC4)CC3)CC2)C(C)(C)C)cc1 [I-68]
12 | – | 10 to 100 | B (B (>100-500 fold)) | – | > 100 | B (B (>70-90% degradation)) | D (D (<50% degradation)) | Cc1ncsc1-c1ccc(CNC(=O)[C@@H]2C[C@@H](O)CN2C(=O)[C@@H](NC(=O)[C@H]2CC3(CC[C@H](N4CCC(c5cnc(N6CCN7c8cc(-c9ccccc9O)nnc8NC[C@H]7C6)nc5)CC4)CC3)C2)C(C)(C)C)cc1 (single isomer, unassigned) [I-66]
13 | 70 to 90 | < 1 | D (D (<10 fold)) | 70 to 90 | 1 to 10 | – | – | Cc1ncsc1-c1ccc(CNC(=O)[C@@H]2C[C@@H](O)CN2C(=O)[C@@H](NC(=O)N2CC3(CC(N4CCN(c5ccnc(N6CCN7c8cc(-c9ccccc9O)nnc8NC[C@H]7C6)n5)CC4)C3)C2)C(C)(C)C)cc1 [I-72]
14 | – | 1 to 10 | B (B (>100-500 fold)) | – | > 100 | B (B (>70-90% degradation)) | D (D (<50% degradation)) | C#Cc1ccc([C@H](C)NC(=O)[C@@H]2C[C@@H](O)CN2C(=O)[C@@H](NC(=O)[C@H]2CCC3(CC2)C[C@H](N2CCC(c4cnc(N5CCN6c7cc(-c8ccccc8O)nnc7NC[C@H]6C5)nc4)CC2)C3)C(C)(C)C)cc1 (single isomer, unassigned) [I-57]
15 | 50 to 70 | 10 to 100 | C (C (10-100 fold)) | 70 to 90 | > 100 | – | – | Cc1ncsc1-c1ccc(CNC(=O)[C@@H]2C[C@@H](O)CN2C(=O)[C@@H](NC(=O)C2(F)CC2)C(C)(C)C)c(OC2CCN(Cc3cnc(N4CCc5[nH]c6nnc(-c7ccccc7O)cc6c5[C@H]4C)nc3)CC2)c1 (single isomer, unassigned) [I-42]
16 | < 50 | > 100 | C (C (10-100 fold)) | < 50 | > 100 | – | – | CC(C)C(C(=O)N1C[C@H](O)C[C@H]1C(=O)NCc1ccc(Cl)cc1)c1cc(N2CC3(CC(N4CCC(c5cnc(N6CCN7c8cc(-c9ccccc9O)nnc8NC[C@H]7C6)nc5)CC4)C3)C2)no1 (stereo partly shown) [I-17]
17 | > 90 | < 1 | D (D (<10 fold)) | > 90 | 1 to 10 | – | – | Cc1ncsc1-c1ccc(CNC(=O)[C@@H]2C[C@@H](O)CN2C(=O)[C@@H](NC(=O)C2(F)CC2)C(C)(C)C)c(OCCCCN2CCC(c3ccnc(N4CCN5c6cc(-c7ccccc7O)nnc6NC[C@H]5C4)n3)CC2)c1 (single isomer, unassigned) [I-46]

From US20250170248A1, “SMARCA DEGRADERS AND USES THEREOF” (Kymera Therapeutics, Inc., priority 2021, published 2025)
